# Read-outs that look alike come from different tables or passages of the source.
# How the values were obtained:
# [1] = system: Fyn mediated phosphorylation of residue Tyr18 in Tau protein; test: Aβ42 induced Tyr18-Tau phosphorylation in differentiated SH-SY5Y cells; type: cell-based, human
# Protocol: The neuroblastoma cell line SH-SY5Y was cultured in media obtained by mixing equal volume of MEM and HAM F12 supplemented with 15% fetal calf serum (FCS, Australian origin, Lonza), 100 U/ml penicillin, 100 μg/ml streptomycin and 2 mM L-glutamine (all from Euroclone) at 37° C. in humidified air with 5% CO2. The medium was changed every 48 hours. Cells were split at about 80% confluence and never cultured beyond passage 20. Cell differentiation was achieved by pre-treating for 5 days the SH-SY5Y cells with media containing 1% FCS and 10 μM retinoic acid (RA, Sigma Aldrich). Subsequently cells were treated for other 7 days in media with no serum and supplemented with 50 ng/ml of human recombinant brain derived neurotrophic factor (BDNF, Peprotech), 10 ng/ml human recombinant beta nerve growth factor (NGF, Peprotech), 10 ng/ml neuregulin 1 beta 2 protein (NRG, Abcam) and 9.35 μg/ml vitamin D3 (Sigma Aldrich). To confirm full neuronal differentiation, the expression of mature isoforms of Tau were checked. Differentiated cells were treated for 1.5, 3 and 6 hours with media containing 10 μM Aβ42 oligomer/protofibrils and N2 supplement (Life Technologies), in the presence or in the absence of Fyn inhibitors dissolved in DMSO. As control, cells were treated with media containing equivalent amounts of DMSO.
# Briefly, Aβ42 peptides (Sigma) were dissolved in 1,1,1,3,3,3-hexafluoro-2-propanol and lyophilized to completely remove the solvent. Lyophilized Aβ42 peptides were reconstituted in DMSO to a working concentration of 10 mM, diluted 1:100 using HAM F12 (without phenol red and glutammine), vortexed for 15 sec and incubated 24 hours at 4° C. A042 oligomer/protofibrils were visualized by SDS-PAGE and silver staining.
# human normal fibroblasts = test: Toxicity in human normal fibroblasts; type: cell-based
# recombinant Fyn = recombinant Fyn (Homo sapiens, UniProt P06241); test: Enzymatic assay on isolated Fyn kinase
# Chain of recombinant Fyn (P06241 whole entry, looked up): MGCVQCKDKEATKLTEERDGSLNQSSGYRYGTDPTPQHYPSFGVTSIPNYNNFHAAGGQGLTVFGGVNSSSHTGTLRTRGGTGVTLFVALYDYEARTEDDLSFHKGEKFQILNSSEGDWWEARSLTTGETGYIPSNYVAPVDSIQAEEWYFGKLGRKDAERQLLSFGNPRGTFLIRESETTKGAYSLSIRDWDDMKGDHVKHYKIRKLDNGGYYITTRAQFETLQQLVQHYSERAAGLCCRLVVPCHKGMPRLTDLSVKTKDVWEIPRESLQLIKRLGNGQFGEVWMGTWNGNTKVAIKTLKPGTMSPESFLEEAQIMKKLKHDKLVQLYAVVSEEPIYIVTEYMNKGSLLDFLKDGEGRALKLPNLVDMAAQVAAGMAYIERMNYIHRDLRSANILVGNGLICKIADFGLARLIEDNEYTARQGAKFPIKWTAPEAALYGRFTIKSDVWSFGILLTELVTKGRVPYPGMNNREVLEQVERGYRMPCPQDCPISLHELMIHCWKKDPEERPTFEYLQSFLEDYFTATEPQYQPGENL
# Protocol: Kinase assays were performed in presence of 200 μM ATP and 100 μM peptide substrate. All inhibition assays were conducted with 0.01 μg active kinase, 0.33 μmol [^γ32P]ATP, 60 mM HEPES-NaOH pH 7.5, 3 μM Na-orthovanadate, 1.2 mM DTT, 50 μg/ml PEG20.0000, 10 mM magnesium acetate, 0.004% NP40 and 10% DMSO in a final volume of 10 μL. Fyn and inhibitors were preincubated in ice for 5 min; after addition of the substrates the reaction was conducted at 30° C. for 10 min. The reaction was stopped by adding 5 μL of 3% phosphoric acid. Aliquots (10 μL) were then transferred into a P30 Filtermat (PerkinElmer), washed five times with 75 mM phosphoric acid and once with acetone for 5 minute. The filter was dried and transferred to a sealable plastic bag, and scintillation cocktail (4 mL) was added. Spotted reactions were read in a MicroBeta Liquid (Perkinelmer) scintillation counter. The ID50 values were obtained according to the following equation:
# Ki values toward recombinant Fyn were calculated using the equation:
# according to a competitive mechanism of inhibition toward ATP substrate, where [SATP] is the concentration of ATP. Curve fitting was performed with the program GraphPad Prism version 5.00.
# K562 cells = test: Antiproliferative activity on human cell line K562; type: cell-based
# Protocol: In vitro experiments were carried out using the human Chronic Myelogeneous Leukemia cell line K562. Cells were purchased from American Type Culture Collection (ATCC, Manassas, Va., USA) and were cultured in RPMI medium supplemented with 10% Foetal Bovine Serum. […] Cell number and vitality were evaluated using the automatic cell counter NucleoCounteri (Chemometec, Denmark). Results from the NucleoCounter represented either total or non-viable cell concentration, depending on the sample preparation indicated by manufacturer.
# In vitro experiments were carried out using the human Chronic Myelogeneous Leukemia cell line K562. Cells were purchased from American Type Culture Collection (ATCC, Manassas, Va., USA) and were cultured in RPMI medium supplemented with 10% Foetal Bovine Serum. […] Cell number and vitality were evaluated using the automatic cell counter NucleoCounter® (Chemometec, Denmark). Results from the NucleoCounter represented either total or non-viable cell concentration, depending on the sample preparation indicated by manufacturer.
# SH-SY5Y cells [2] = conditions: previously reported (ref 20); read-out: antiproliferative effect on SH-SY5Y NB cells (IC50); cited from earlier work
# [3] = PAMPA, intestinal (GI) permeability
# Protocol: Donor solution (0.5 mM) was prepared by diluting 1 mM dimethylsulfoxide (DMSO) compound stock solution using phosphate buffer (pH 7.4, 0.025 M). […] Donor solution (150 μL) was added to each well of the filter plate. To each well of the acceptor plate were added 300 μL of solution (50% DMSO in phosphate buffer). All compounds were tested in three different plates on different days. The sandwich was incubated for 5 h at room temperature under gentle shaking. After the incubation time, the plates were separated, and samples were taken from both receiver and donor sides and analyzed using LC with UV detection at 280 nm.
# Permeability (Papp) for PAMPA was calculated according to the following equation, obtained from Wohnsland and Faller^27 and Sugano et al.^28 equation with some modification in order to obtain permeability values in cm s^−1,
# Drug concentration is estimated by using the peak area integration. Membrane retentions (%) were calculated according to the following equation:
# where r is the ratio between drug concentration in the acceptor and equilibrium concentration, D, A, and Eq represented drug concentration in the donor, acceptor and equilibrium solution, respectively.
# Donor solution of tested compounds (0.5 mM) was prepared by diluting 1 mM dimethylsulfoxide (DMSO) compound stock solution using phosphate buffer (pH 7.4, 25 mM). […] Donor solution (150 μL) was added to each well of the filter plate. To each well of the acceptor plate were added 300 μL of solution (50% DMSO in phosphate buffer). Compounds was tested in three different plates on different days. The sandwich was incubated for 5 h at room temperature under gentle shaking.
# Permeability (Papp) for PAMPA was calculated according to the following equation, obtained from Wohnsland and Faller and Sugano et al.^27, 28.
# Drug concentration is estimated by using the peak area integration. Membrane retention (%) was calculated according to the following equation:
# [4] = Microsomal stability assay; conditions: percentage of unmodified drug, Table 8
# Recombinant human Src = biological target: T1, Recombinant human Src (Homo sapiens, UniProt P12931); test: Enzymatic assay on isolated Src; type: biochemical; conditions: mean of at least two experiments; read-out: Enzymatic Data (Ki, μM) c-Src
# T1 construct: purchased Upstate (Lake Placid, N.Y.)
# T1 sequence (P12931 whole entry): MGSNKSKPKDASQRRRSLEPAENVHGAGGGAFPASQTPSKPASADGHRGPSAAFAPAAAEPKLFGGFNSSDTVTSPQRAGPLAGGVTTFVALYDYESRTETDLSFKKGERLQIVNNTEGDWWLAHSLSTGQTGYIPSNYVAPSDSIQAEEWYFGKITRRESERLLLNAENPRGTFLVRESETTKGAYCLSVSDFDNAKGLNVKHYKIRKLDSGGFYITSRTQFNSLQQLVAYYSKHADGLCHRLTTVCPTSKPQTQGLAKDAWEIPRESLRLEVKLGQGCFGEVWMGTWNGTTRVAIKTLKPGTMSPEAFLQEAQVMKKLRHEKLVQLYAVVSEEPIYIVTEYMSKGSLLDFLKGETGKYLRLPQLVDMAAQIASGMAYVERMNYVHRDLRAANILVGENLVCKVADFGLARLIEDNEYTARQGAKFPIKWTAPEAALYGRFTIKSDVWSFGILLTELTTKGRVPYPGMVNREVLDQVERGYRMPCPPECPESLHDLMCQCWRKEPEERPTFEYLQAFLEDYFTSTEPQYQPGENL
# Text: Recombinant human Src was purchased from Upstate (Lake Placid, N.Y.).
# SH-SY5Y cells [5] = test: Spheroid growth assay (SH-SY5Y); type: cell-based; conditions: Homo sapiens; SH-SY5Y Neuroblastoma cell spheroid; read-out: Cellular Data (IC50, μM) SH-SY5Y
# Protocol: The in vitro antitumoral action of inhibitors was evaluated by neuroblastoma spheroid assay. The SH-SY5Y cell line was utilized as cell model of human neuroblastoma. Cells were purchased from American Type Culture Collection (ATCC, Manassas, Va., USA) and were cultured in DMEM medium supplemented with 10% Fetal Bovine Serum. IBIDI angiogenesis micro-slides (IBIDI GmbH) coated with growth factor reduced Matrigel (BD, Bioscience) and allowed to polymerize for 30 minutes. SH-SY5Y cells were seeded in a 96-multiwell plate in the presence or not (CTR) of inhibitors. […] The size of cellular spheres, in terms of area and diameter, was determined using an Image Pro-plus v 4.5 analysis system considering 5 random fields/treatment (400× magnification).
# Antitumoral effect was also tested by spheroid formation assay.
structure (smiles),measurement,setting,value
"Nc1ncnc2c1c(-c1ccc(Cl)cc1)nn2CC(Cl)c1ccccc1 (stereo not shown) [Si308, 3-(4-Chlorophenyl)-1-(2-chloro-2-phenylethyl)-1H-pyrazolo[3,4-d]pyrimidin-4-amine]",duration of inhibitory activity on Tau phosphorylation,[1]; after compound administration,effective up to six hours
same,Aβ42 induced Tyr18-Tau phosphorylation,[1]; dose dependent,significantly affected
same,melting point,,150 to 151 °C
same,cell toxicity in human normal fibroblasts,human normal fibroblasts,did not showed any sign of cell toxicity
same,Ki,recombinant Fyn,95 nM
same,Ki,recombinant Fyn; read-out: Ki Fyn,70 nM
same,IC50 for cell viability K562,K562 cells,submicromolar range
same,IC50,"K562 cells; Homo sapiens, K562, read-out: Cellular Data (IC50, μM) K562",0.56 ± 0.01 µM
"CSc1nc(Nc2cccc(Cl)c2)c2cnn(CCc3ccccc3)c2n1 [Si214, N-(3-chlorophenyl)-6-(methylthio)-1-phenethyl-1H-pyrazolo[3,4-d]pyrimidin-4-amine]",PAMPA BBB (MR %),"PAMPA, BBB permeability; Membrane Retention, BBB",(55.7) %
same,"Papp at 5 h, 0.5 mM","PAMPA, BBB permeability; PAMPA, pH 7.4",1.48 ×10⁻⁶ cm/s
same,IC50,SH-SY5Y cells [2],80 nM
same,PAMPA GI,"[3]; Gastrointestinal PAMPA, Table 8",0 10^−6 cm · sec^−1
same,PAMPA GI (MR %),"[3]; Membrane Retention, GI",(78.0) %
same,Metabolic Stab. %,[4],99.0%
Fc1ccccc1CNc1nc(SCCN2CCOCC2)nc2c1cnn2CCc1ccccc1,Ki,Recombinant human Src,0.17 µM
same,IC50,SH-SY5Y cells [5],63 µM

# Source: patent publication US20180186796A1, “COMPOUNDS AND USES THEREOF” (LEAD DISCOVERY SIENA S.R.L., priority 2014, published 2018)
